According to ChEMBL document CHEMBL5728679, “Imidazopyridinyl compounds and use thereof for treatment of neurodegenerative disorders” (2021):

Biological target: Tyrosine-protein kinase ABL1 (Homo sapiens, UniProt P00519)
Assay: Kinase Assay: c-abl: ADP-Glo assay kit was purchased from Promega. Magnesium chloride (MgCl2), bovine serum albumin (BSA), ethylene glycol-bis(p-aminoethyl ether)-N,N,N′,N′-tetraacetic acid (EGTA), triton X-100, 1,4-dithiothreitol (DTT) and dimethyl sulfoxide (DMSO) were purchased from Sigma-Aldrich. HEPES buffer was purchased from Gibco. ABL1 kinase and Abltide were purchased from Signalchem.c-Abl kinase activity was measured by Promega's ADP-Glo™ Assay. In this assay, His-tagged recombinant human ABL1 (0.25 ng/μl) is incubated with 5 μL of compounds (0.5% DMSO), 5 μL of Abltide (0.01 μg/μl) and 5 μL of ATP (25 μM) in buffer (50 mM HEPES, 7.5; 10 mM MgCl2; 1 mM EGTA; 0.05% BSA; 0.01% Triton X-100; 2 mM DTT). The assay was started by incubating the reaction mixture in a 96-well plate at 30° C. for 30-min. After the incubation, 25 μL ADP-Glo reagent was added and the reaction was incubated at room temperature for 40-min to stop the reaction and degrade residual ATP. The ADP product was then converted to ATP by adding 50 μL per well of detection reagent. Luminescence was detected after 30-min room temperature incubation with the Molecular device I3X plate reader. The IC50 values were calculated from a series of percent inhibition values determined at a range of inhibitor concentration using software routines as implemented in the GraphPad Prism 7 software and Sigma Plot 13.0.

Sequence of Tyrosine-protein kinase ABL1 (P00519 whole entry): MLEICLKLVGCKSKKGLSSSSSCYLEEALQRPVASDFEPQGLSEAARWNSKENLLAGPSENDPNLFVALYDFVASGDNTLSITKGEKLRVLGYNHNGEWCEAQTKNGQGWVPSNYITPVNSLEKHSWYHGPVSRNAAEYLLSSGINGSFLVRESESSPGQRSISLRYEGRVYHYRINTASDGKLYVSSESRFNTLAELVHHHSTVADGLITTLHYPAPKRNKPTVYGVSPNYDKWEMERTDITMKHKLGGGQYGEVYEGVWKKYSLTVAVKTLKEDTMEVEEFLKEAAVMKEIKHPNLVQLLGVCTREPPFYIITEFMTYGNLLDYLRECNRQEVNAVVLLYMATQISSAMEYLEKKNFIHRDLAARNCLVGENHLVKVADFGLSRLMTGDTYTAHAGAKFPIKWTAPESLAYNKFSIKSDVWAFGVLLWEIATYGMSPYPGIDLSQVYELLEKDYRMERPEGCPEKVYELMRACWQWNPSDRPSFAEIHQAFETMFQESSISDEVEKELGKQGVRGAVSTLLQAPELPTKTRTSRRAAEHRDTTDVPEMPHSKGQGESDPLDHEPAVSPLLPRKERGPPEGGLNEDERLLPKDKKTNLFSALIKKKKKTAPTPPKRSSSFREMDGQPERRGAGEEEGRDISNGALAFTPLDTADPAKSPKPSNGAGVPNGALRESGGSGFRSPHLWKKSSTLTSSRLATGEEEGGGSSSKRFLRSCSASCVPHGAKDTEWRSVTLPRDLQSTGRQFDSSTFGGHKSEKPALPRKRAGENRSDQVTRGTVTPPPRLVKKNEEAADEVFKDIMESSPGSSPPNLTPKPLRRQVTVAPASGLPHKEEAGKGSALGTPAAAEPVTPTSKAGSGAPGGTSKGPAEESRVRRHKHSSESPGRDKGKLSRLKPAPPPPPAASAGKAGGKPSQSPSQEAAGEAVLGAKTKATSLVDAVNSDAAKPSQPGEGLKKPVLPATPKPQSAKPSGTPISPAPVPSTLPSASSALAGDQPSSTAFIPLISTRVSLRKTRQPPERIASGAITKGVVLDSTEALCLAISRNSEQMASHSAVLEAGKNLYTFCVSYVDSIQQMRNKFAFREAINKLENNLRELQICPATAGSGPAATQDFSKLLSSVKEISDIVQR

Row | SMILES | IC50
1 | Cc1cccc(C)c1-c1ccc2nc(NC(=O)[C@@H]3C[C@@H]3F)cn2c1 | < 0.01 µM
2 | COc1ccncc1-c1ccc2nc(NC(=O)[C@@H]3C[C@@H]3F)cn2c1 | < 0.01 µM
3 | Cc1cc2scnc2cc1-c1ccc2nc(NC(=O)[C@@H]3C[C@@H]3F)cn2c1 | < 0.01 µM
4 | Cc1c(F)cccc1-c1ccc2nc(NC(=O)C3CC3(F)F)cn2c1 (centres undefined) | < 0.01 µM
